Laboratory results published in paper PMC4722047, “Purification and characterization of the enzymes involved in nicotinamide adenine dinucleotide degradation by Penicillium brevicompactum NRC 829” (3 Biotech, 2016).

System: T1, NAD aminohydrolase (NAD deaminase)
T1 construct: native enzyme purified from mycelial extract (acetone, DEAE-Sephadex A-25, Sephadex G-100); 91 kDa by SDS-PAGE
Test: discontinuous ammonia release (Nessler's reagent)
Type: biochemical, Penicillium brevicompactum
Conditions: pH 6.0, 50 mM Tris-acetate
Text: discontinuous ammonia release (Nessler's reagent) on NAD aminohydrolase (NAD deaminase)

[1] = 40 °C (conditions given for NAD)

Km [1] | Km (40 °C, 30 min, 1.5-20 µM NAD+) | SMILES
8.33 µM |  | Nc1ncnc2c1ncn2[C@@H]1O[C@H](COP(=O)(O)O)[C@@H](O)[C@H]1O [AMP]
 | 5.2 µM | NC(=O)c1ccc[n+]([C@@H]2O[C@H](COP(=O)(O)OP(=O)(O)OC[C@H]3O[C@@H](n4cnc5c(N)ncnc54)[C@H](O)[C@@H]3O)[C@@H](O)[C@H]2O)c1 [NAD]
6.25 µM |  | Nc1ncnc2c1ncn2[C@@H]1O[C@H](COP(=O)(O)OP(=O)(O)O)[C@@H](O)[C@H]1O [ADP]

SMILES | Km [1] | Km (40 °C, 30 min, 1.5-20 µM NAD+)
Nc1ncnc2c1ncn2[C@@H]1O[C@H](CO)[C@@H](O)[C@H]1O [Adenosine] | 4.5 µM | 
